These molecules were tested against GCN2 kinase (Homo sapiens (Human), UniProt Q9P2K8) (assay: GCN2 Enzyme Inhibition Assay (Transcreener ADP2 fluorescence polarization)). Conditions: 280 μM ATP, 200 μM (RS)7 peptide, 4 nM GCN2, 25° C.
Assay type: biochemical
Summary of the method: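 Transcreener ADP2 fluorescence polarization detection of ADP from 4 nM GCN2 with (RS)7 substrate in 25 mM Tris-HCl pH 7.5, 50 mM NaCl, 10 mM MgCl2, 1 mM DTT. Compound pre-incubated with enzyme 10 min at 25 °C; reaction started by ATP, run 1 h at 25 °C. IC50 and Ki(app) by tight-binding fit.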

Chain of GCN2 kinase (Q9P2K8 whole entry): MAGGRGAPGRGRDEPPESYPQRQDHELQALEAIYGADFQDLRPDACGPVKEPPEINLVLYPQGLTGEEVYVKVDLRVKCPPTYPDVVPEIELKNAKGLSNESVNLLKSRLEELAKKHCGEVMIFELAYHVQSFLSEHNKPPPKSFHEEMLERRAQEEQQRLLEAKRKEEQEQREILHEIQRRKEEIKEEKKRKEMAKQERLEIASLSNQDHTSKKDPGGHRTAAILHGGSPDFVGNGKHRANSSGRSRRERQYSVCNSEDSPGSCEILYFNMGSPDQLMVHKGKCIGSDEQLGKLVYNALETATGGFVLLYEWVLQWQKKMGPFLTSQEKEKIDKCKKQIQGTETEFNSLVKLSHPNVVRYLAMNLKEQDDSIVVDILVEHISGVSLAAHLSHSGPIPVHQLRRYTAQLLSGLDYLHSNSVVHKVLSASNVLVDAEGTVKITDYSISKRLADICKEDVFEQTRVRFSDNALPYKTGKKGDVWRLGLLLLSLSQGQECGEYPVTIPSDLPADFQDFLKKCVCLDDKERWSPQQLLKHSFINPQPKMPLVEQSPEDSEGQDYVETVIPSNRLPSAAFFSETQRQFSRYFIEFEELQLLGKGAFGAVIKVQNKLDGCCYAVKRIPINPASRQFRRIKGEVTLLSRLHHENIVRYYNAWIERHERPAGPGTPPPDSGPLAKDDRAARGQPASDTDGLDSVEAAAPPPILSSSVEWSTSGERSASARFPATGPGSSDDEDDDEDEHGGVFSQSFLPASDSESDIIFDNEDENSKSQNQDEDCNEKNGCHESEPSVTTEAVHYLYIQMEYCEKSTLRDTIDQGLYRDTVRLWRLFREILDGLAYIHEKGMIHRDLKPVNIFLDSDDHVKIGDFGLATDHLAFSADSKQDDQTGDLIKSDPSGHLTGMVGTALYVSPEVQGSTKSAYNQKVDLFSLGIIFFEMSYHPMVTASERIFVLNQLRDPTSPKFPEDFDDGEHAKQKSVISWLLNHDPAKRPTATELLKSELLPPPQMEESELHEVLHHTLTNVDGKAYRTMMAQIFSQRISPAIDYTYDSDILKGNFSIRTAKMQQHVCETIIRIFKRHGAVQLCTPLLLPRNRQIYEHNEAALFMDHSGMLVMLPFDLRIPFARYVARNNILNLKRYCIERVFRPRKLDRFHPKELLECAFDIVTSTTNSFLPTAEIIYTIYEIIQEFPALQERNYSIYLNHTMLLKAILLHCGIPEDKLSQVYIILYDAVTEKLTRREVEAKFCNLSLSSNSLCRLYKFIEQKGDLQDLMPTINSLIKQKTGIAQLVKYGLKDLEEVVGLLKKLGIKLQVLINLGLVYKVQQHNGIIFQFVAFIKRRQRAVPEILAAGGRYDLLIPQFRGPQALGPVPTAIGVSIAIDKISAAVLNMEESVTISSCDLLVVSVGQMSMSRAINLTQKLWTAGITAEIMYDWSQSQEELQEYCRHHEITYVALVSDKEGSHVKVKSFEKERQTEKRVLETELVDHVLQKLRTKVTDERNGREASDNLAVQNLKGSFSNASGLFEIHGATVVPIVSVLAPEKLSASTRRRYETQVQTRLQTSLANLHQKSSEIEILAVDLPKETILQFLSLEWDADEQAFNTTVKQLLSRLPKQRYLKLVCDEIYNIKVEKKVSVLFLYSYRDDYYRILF

IC50 [nM]	Compound
10 to 100	Cc1nnc(C)n1[C@H]1C[C@@H](C)CN(c2nccc(-c3cnc4ccc(C(F)(F)F)cn34)n2)C1 [I-466, 3-(2-((3S,5R)-3-(3,5-dimethyl-4H-1,2,4-triazol-4-yl)-5-methylpiperidin-1-yl)pyrimidin-4-yl)-6-(trifluoromethyl)imidazo[1,2-a]pyridine]
10 to 100	Cc1nnc(C)n1[C@@H]1C[C@@H](C)CN(c2nccc(-c3cnc4ccc(C(F)(F)F)cn34)n2)C1 [I-467, 3-(2-((3R,5R)-3-(3,5-dimethyl-4H-1,2,4-triazol-4-yl)-5-methylpiperidin-1-yl)pyrimidin-4-yl)-6-(trifluoromethyl)imidazo[1,2-a]pyridine]
100 to 1000	O=C(C1CC12CC2)N1CCN(c2ccnc(-c3cnc4ccc(C(F)(F)F)cn34)n2)CC1c1cn[nH]c1 (stereo not drawn) [I-468, (2-(1H-pyrazol-4-yl)-4-(2-(6-(trifluoromethyl)imidazo[1,2-a]pyridin-3-yl)pyrimidin-4-yl)piperazin-1-yl)(spiro[2.2]pentan-1-yl)methanone]
10 to 100	O=C1CCC(C(=O)N2CCN(c3ccnc(-c4cnc5ccc(C(F)(F)F)cn45)n3)CC2c2cn[nH]c2)N1 (stereo not drawn) [I-469, 5-(2-(1H-pyrazol-4-yl)-4-(2-(6-(trifluoromethyl)imidazo[1,2-a]pyridin-3-yl)pyrimidin-4-yl)piperazine-1-carbonyl)pyrrolidin-2-one]
100 to 1000	C[C@H]1[C@H](CNS(C)(=O)=O)NCCN1c1ccnc(-c2cnc3ccc(C(F)(F)F)cn23)n1 [I-471, N-(((2 S,3 S)-3-methyl-4-(2-(6-(trifluoromethyl)imidazo[1,2-a]pyridin-3-yl)pyrimidin-4-yl)piperazin-2-yl)methyl)methanesulfonamide]
100 to 1000	O=C1CCC[C@@H](C(=O)N2CCN(c3ccnc(-c4cnc5ccc(C(F)(F)F)cn45)n3)C[C@@H]2c2cn[nH]c2)N1 [I-474, (S)-6-((S)-2-(1H-pyrazol-4-yl)-4-(2-(6-(trifluoromethyl)imidazo[1,2-a]pyridin-3-yl)pyrimidin-4-yl)piperazine-1-carbonyl)piperidin-2-one]
10 to 100	FC(F)(F)c1ccc2ncc(-c3nccc(N4CCN(CC5CC56CC6)C(c5cn[nH]c5)C4)n3)n2c1 (stereo not drawn) [I-475, 3-(4-(3-(1H-pyrazol-4-yl)-4-(spiro[2.2]pentan-1-ylmethyl)piperazin-1-yl)pyrimidin-2-yl)-6-(trifluoromethyl)imidazo[1,2-a]pyridine]
100 to 1000	Cc1nn(C)cc1C(=O)N1CCN(c2ccnc(-c3cnc4ccc(C(F)(F)F)cn34)n2)C[C@H]1C [I-479, (R)-(1,3-dimethyl-1H-pyrazol-4-yl)(2-methyl-4-(2-(6-(trifluoromethyl)imidazo[1,2-a]pyridin-3-yl)pyrimidin-4-yl)piperazin-1-yl)methanone]
100 to 1000	Cc1nn(C)cc1C(=O)N1CCN(c2ccnc(-c3cnc4ccc(C(F)(F)F)cn34)n2)C[C@@H]1C [I-480, (S)-(1,3-dimethyl-1H-pyrazol-4-yl)(2-methyl-4-(2-(6-(trifluoromethyl)imidazo[1,2-a]pyridin-3-yl)pyrimidin-4-yl)piperazin-1-yl)methanone]
100 to 1000	C[C@@H]1CN(c2ccnc(-c3cnc4ccc(C(F)(F)F)cn34)n2)C[C@H](C)N1C(=O)c1ccncc1 [I-483, (cis-2,6-dimethyl-4-(2-(6-(trifluoromethyl)imidazo[1,2-a]pyridin-3-yl)pyrimidin-4-yl)piperazin-1-yl)(pyridin-4-yl)methanone]
100 to 1000	C[C@@H]1CN(c2ccnc(-c3cnc4ccc(C(F)(F)F)cn34)n2)C[C@H](C)N1C(=O)C1(C)CC1 [I-486, (cis-2,6-dimethyl-4-(2-(6-(trifluoromethyl)imidazo[1,2-a]pyridin-3-yl)pyrimidin-4-yl)piperazin-1-yl)(1-methylcyclopropyl)methanone]
100 to 1000	O=C(C1CCOCC1)N1CCN(c2ccnc(-c3cnc4ccc(C(F)(F)F)cn34)n2)CC1c1cn[nH]c1 (stereo not drawn) [I-487, (2-(1H-pyrazol-4-yl)-4-(2-(6-(trifluoromethyl)imidazo[1,2-a]pyridin-3-yl)pyrimidin-4-yl)piperazin-1-yl)(tetrahydro-2H-pyran-4-yl)methanone]
10 to 100	O=C(N1CCN(c2ccnc(-c3cnc4ccc(C(F)(F)F)cn34)n2)CC1c1cn[nH]c1)C1(C(F)F)CC1 (stereo not drawn) [I-488, (2-(1H-pyrazol-4-yl)-4-(2-(6-(trifluoromethyl)imidazo[1,2-a]pyridin-3-yl)pyrimidin-4-yl)piperazin-1-yl)(1-(difluoromethyl)cyclopropyl)methanone]

The next lines start with the molecule.

Compound	IC50 [nM]
C[C@H]1[C@@H](C(N)=O)NCCN1c1ccnc(-c2cnc3ccc(C(F)(F)F)cn23)n1 [I-435, (2S,3 S)-3-methyl-4-(2-(6-(trifluoromethyl)imidazo[1,2-a]pyridin-3-yl)pyrimidin-4-yl)piperazine-2-carboxamide]	< 10
C[C@H]1[C@@H](CNS(C)(=O)=O)NCCN1c1ccnc(-c2cnc3ccc(C(F)(F)F)cn23)n1 [I-436, N-(((2R,3 S)-3-methyl-4-(2-(6-(trifluoromethyl)imidazo[1,2-a]pyridin-3-yl)pyrimidin-4-yl)piperazin-2-yl)methyl)methanesulfonamide]	10 to 100
C[C@@H]1CN(c2ccnc(-c3cnc4ccc(C(F)(F)F)cn34)n2)C[C@H](C)N1C(=O)C1CC(F)(F)C1 [I-437, (3,3-difluorocyclobutyl)(cis-2,6-dimethyl-4-(2-(6-(trifluoromethyl)imidazo[1,2-a]pyridin-3-yl)pyrimidin-4-yl)piperazin-1-yl)methanone]	100 to 1000
C[C@@H]1CN(c2ccnc(-c3cnc4ccc(C(F)(F)F)cn34)n2)C[C@H](C)N1C(=O)C1CC1(F)F (stereo partly drawn) [I-438, (2,2-difluorocyclopropyl)(cis-2,6-dimethyl-4-(2-(6-(trifluoromethyl)imidazo[1,2-a]pyridin-3-yl)pyrimidin-4-yl)piperazin-1-yl)methanone]	10 to 100
C[C@@H]1CN(c2ccnc(-c3cnc4ccc(C(F)(F)F)cn34)n2)C[C@H](C)N1S(C)(=O)=O [I-439, 3-(4-(cis-3,5-dimethyl-4-(methylsulfonyl)piperazin-1-yl)pyrimidin-2-yl)-6-(trifluoromethyl)imidazo[1,2-a]pyridine]	100 to 1000
CC1C(C(N)=O)NCCN1c1ccnc(-c2cnc3ccc(Cl)cn23)n1 (stereo not drawn) [I-451, 4-(2-{6-chloroimidazo[1,2-a]pyridin-3-yl}pyrimidin-4-yl)-3-methylpiperazine-2-carboxamide]	10 to 100
COc1cc(C(=O)N2CCN(c3ccnc(-c4cnc5ccc(C(F)(F)F)cn45)n3)CC2c2cn[nH]c2)ccn1 (stereo not drawn) [I-452, (2-(1H-pyrazol-4-yl)-4-(2-(6-(trifluoromethyl)imidazo[1,2-a]pyridin-3-yl)pyrimidin-4-yl)piperazin-1-yl)(2-methoxypyridin-4-yl)methanone]	100 to 1000
C[C@H]1[C@H](C(N)=O)NCCN1c1ccnc(-c2cnc3cc(F)c(C4CC4)cn23)n1 [I-454, (2R,3 S)-4-(2-(6-cyclopropyl-7-fluoroimidazo[1,2-a]pyridin-3-yl)pyrimidin-4-yl)-3-methylpiperazine-2-carboxamide]	10 to 100
CC1C(C(N)=O)NCCN1c1ccnc(-c2cnc3cc(F)c(C4CC4)cn23)n1 (stereo not drawn) [I-455, 4-(2-(6-cyclopropyl-7-fluoroimidazo[1,2-a]pyridin-3-yl)pyrimidin-4-yl)-3-methylpiperazine-2-carboxamide]	10 to 100
FC(F)(F)c1ccc2ncc(-c3nccc(N4CCN(C5CCOCC5)C(c5cn[nH]c5)C4)n3)n2c1 (stereo not drawn) [I-456, 3-(4-(3-(1H-pyrazol-4-yl)-4-(tetrahydro-2H-pyran-4-yl)piperazin-1-yl)pyrimidin-2-yl)-6-(trifluoromethyl)imidazo[1,2-a]pyridine]	10 to 100
Fc1ccc(CN2CCN(c3ccnc(-c4cnc5ccc(C(F)(F)F)cn45)n3)CC2c2cn[nH]c2)cc1 (stereo not drawn) [I-457, 3-(4-(4-(4-fluorobenzyl)-3-(1H-pyrazol-4-yl)piperazin-1-yl)pyrimidin-2-yl)-6-(trifluoromethyl)imidazo[1,2-a]pyridine]	10 to 100
Fc1cccc(CN2CCN(c3ccnc(-c4cnc5ccc(C(F)(F)F)cn45)n3)CC2c2cn[nH]c2)c1 (stereo not drawn) [I-458, 3-(4-(4-(3-fluorobenzyl)-3-(1H-pyrazol-4-yl)piperazin-1-yl)pyrimidin-2-yl)-6-(trifluoromethyl)imidazo[1,2-a]pyridine]	10 to 100
Fc1ccccc1CN1CCN(c2ccnc(-c3cnc4ccc(C(F)(F)F)cn34)n2)CC1c1cn[nH]c1 (stereo not drawn) [I-459, 3-(4-(4-(2-fluorobenzyl)-3-(1H-pyrazol-4-yl)piperazin-1-yl)pyrimidin-2-yl)-6-(trifluoromethyl)imidazo[1,2-a]pyridine]	< 10
FC1(F)CCC(N2CCN(c3ccnc(-c4cnc5ccc(C(F)(F)F)cn45)n3)CC2c2cn[nH]c2)CC1 (stereo not drawn) [I-460, 3-(4-(4-(4,4-difluorocyclohexyl)-3-(1H-pyrazol-4-yl)piperazin-1-yl)pyrimidin-2-yl)-6-(trifluoromethyl)imidazo[1,2-a]pyridine]	10 to 100
C[C@@H]1CN(c2ccnc(-c3cnc4ccc(C(F)(F)F)cn34)n2)C[C@H](C)N1CC1CCOCC1 [I-462, 3-(4-(cis-3,5-dimethyl-4-((tetrahydro-2H-pyran-4-yl)methyl)piperazin-1-yl)pyrimidin-2-yl)-6-(trifluoromethyl)imidazo[1,2-a]pyridine]	100 to 1000
Cc1nnc(C)n1[C@@H]1C[C@H](C)CN(c2nccc(-c3cnc4ccc(C(F)(F)F)cn34)n2)C1 [I-463, 3-(2-((3R,5S)-3-(3,5-dimethyl-4H-1,2,4-triazol-4-yl)-5-methylpiperidin-1-yl)pyrimidin-4-yl)-6-(trifluoromethyl)imidazo[1,2-a]pyridine]	10 to 100
Cc1nnc(C)n1[C@H]1C[C@H](C)CN(c2nccc(-c3cnc4ccc(C(F)(F)F)cn34)n2)C1 [I-465, 3-(2-((3S,5S)-3-(3,5-dimethyl-4H-1,2,4-triazol-4-yl)-5-methylpiperidin-1-yl)pyrimidin-4-yl)-6-(trifluoromethyl)imidazo[1,2-a]pyridine]	100 to 1000
